Test [1] has as its target T1, BT_3942 (Bacteroides thetaiotaomicron, UniProt Q8A0S9).
T1 sequence (Q8A0S9 1-145): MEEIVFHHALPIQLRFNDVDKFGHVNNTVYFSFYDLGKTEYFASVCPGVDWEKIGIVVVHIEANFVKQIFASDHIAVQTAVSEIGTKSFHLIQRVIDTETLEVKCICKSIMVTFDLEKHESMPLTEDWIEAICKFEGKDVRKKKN
Description: DTNB thioesterase assay, […] nm. In kind it is biochemical. As to conditions: 100 uM acyl-CoA, 25 nM enzyme, 60 mM potassium phosphate pH 7.4, 37 C.

The target in test [2] is T2, BVU_0767 (Phocaeicola vulgatus, UniProt A6KYF7).
T2 sequence (A6KYF7 1-137): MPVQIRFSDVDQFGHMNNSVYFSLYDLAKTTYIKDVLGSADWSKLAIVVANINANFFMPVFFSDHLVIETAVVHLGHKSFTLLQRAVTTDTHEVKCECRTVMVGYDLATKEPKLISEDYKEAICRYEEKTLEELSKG
The test can be described thus: DTNB thioesterase assay, […] nm. As to conditions: 100 uM acyl-CoA, 25 nM enzyme, 60 mM potassium phosphate pH 7.4, 37 C. In kind it is biochemical.

Turning to `CCC(=O)SCCNC(=O)CCNC(=O)[C@H](O)C(C)(C)COP(=O)(O)OP(=O)(O)OC[C@H]1O[C@@H](n2cnc3c(N)ncnc32)[C@H](O)[C@@H]1OP(=O)(O)O` [propionyl-CoA], the “DTNB thioesterase assay, 412 nm” value in test [1] is “different substrate specificity for hydrolysis of short chain lengths of Acyl-CoAs and propionyl- and butyryl-CoA”; in test [2], “different substrate specificity for hydrolysis of short chain lengths of Acyl-CoAs and propionyl- and butyryl-CoA”.

Consider `CCCC(=O)SCCNC(=O)CCNC(=O)[C@H](O)C(C)(C)COP(=O)(O)OP(=O)(O)OC[C@H]1O[C@@H](n2cnc3c(N)ncnc32)[C@H](O)[C@@H]1OP(=O)(O)O` [butyryl-CoA], for which the “DTNB thioesterase assay, 412 nm” value in test [2] is “different substrate specificity for hydrolysis of short chain lengths of Acyl-CoAs and propionyl- and butyryl-CoA”.

The record behind these values is PMC8896310 (Cell, 2022).
